Measurements reported in patent EP4741392A1, “1H-PYRAZOLO[4,3-C]PYRIDINE COMPOUND, AND COMPOSITION THEREOF AND USE THEREOF” (Shenzhen TargetRx Co., Ltd., priority 2023, dated 2025).

Columns and labels:
Format in all cases: cell-based
Ramos cells with BTK WT = test: Phosphor-BTK(Y223) assay, suspended cells; settings: Homo sapiens, Ramos, phosphorylated BTK Y223, Ramos cells with BTK WT
Description: (§1) The purpose of this assay was to simply, quickly and directly detect the level of endogenous BTK phosphorylation in cells.
The steps for handling suspended cells were as follows: • 1) Ramos cells with BTK WT (2.5 k/well), BTK C481S (2.5 k/well), or BTK T474I (2.5 k/well) were plated in a 96-well plate, respectively. A compound of different concentration gradients was added using Tecan D300e, and the plate was incubated at 37 °C and 5% CO2 for 2 hours. • 2) 8.33 µL of 20 mM Na3VO4 was added to bring the final concentration to 5 mM, and the plate was incubated at 37 °C and 5% CO2 for 3 h. • 3) During the incubation, the following reagents were prepared: • 4x added lysis buffer: 24 vol 4x lysis buffer + 1 vol 25x blocking reagent. • p-BTK (Y223) cryptate-antibody and p-BTK (Y223) d2-antibody working solutions: 1 volume of each cryopreserved antibody (stored at - 20 °C) was added to 38 times the volume of assay buffer (stored at 4 °C), and mixed well. • 4) After the incubation was completed, 11.1 µL of 4x added lysis buffer was directly added. The plate was shaken at 800 rpm at room temperature for 30 min. • 5) The lysate was mixed well and 16 µL of it was transferred to a 384-well plate. 1 × added lysis buffer was used as a blank control. • 6) 4 µL of pre-mixed working solutions of the two antibodies (cryptate Ab:d2 Ab = 1:1) was added, and the plate was sealed. • 7) The plate was incubated at room temperature overnight. • 8) The plate was read at 665nm and 620nm using Biotek cytation3.0 microplate reader, and the ratio of 665/620nm of each well was calculated. Data analysis: IC50 was calculated using GraphPad Prism 7.0 software.
(§2) The IC50 (half-maximal phosphorylation inhibitory concentration) of the phosphorylated BTK Y223 of the compound was obtained using the following nonlinear fitting formula: Y = Bottom + (Top−Bottom)/(1+10^(∧)((LogIC50−X)*HillSlope)) [formula] • X: Log value of the compound concentration • Y: Inhibition rate (% inhibition) • Top: Maximum response • Bottom: Baseline response • HillSlope: Slope of the curve
(§3) The formula for calculating cell phosphorylation inhibition rate (inhibition rate %) was: Inhibition rate% = 1−(eachconcentrationwell-blankwell)/(positivecontrolwell−blankwell) [formula]

NIH/3T3 BTK WT cells = test: Phosphor-BTK(Y223) assay, adherent cells; settings: Mus musculus, NIH3T3, phosphorylated BTK Y223, NIH/3T3 BTK WT cells; read-out: NIH/3T3 BTK-WT pBTK
Description: as §1
(§4) The steps for handling adherent cells were as follows: • 1) NIH/3T3 BTK WT cells (7.5 k/well) and NIH/3T3 BTK C481S cells (10 k/well) were plated in a 96-well plate, respectively, and cultured at 37 °C and 5% CO2 overnight. • 2) A 3-fold final concentration gradient dilution of a compound was prepared, and 50 µL of it was taken and added to 100 µL of cell culture. 0.5% DMSO was used as a positive control for cell growth. • 3) The plate was incubated at 37 °C and 5% CO2 for 0.5 h. • 4) Na3VO4 at a final concentration of 1mM was added, and the plate was incubated at 37 °C and 5% CO2 for 2 hours. • 5) During the incubation, the following reagents were prepared: • 1x added lysis buffer: 3 vol ddH2O + 1 vol 4x lysis buffer + 100x blocking reagent. • p-BTK (Y223) cryptate-antibody and p-BTK (Y223) d2-antibody working solutions: 1 volume of each cryopreserved antibody (stored at - 20 °C) was added to 19 times the volume of assay buffer (stored at 4 °C). • 6) After the incubation was completed, the medium was removed and 50 µL of 1x added lysis buffer was added. The plate was centrifuged at 500 rpm at room temperature for 30 min. • 7) The lysate was mixed well and 16 µL of it was transferred to a 384-well plate. 1 × added lysis buffer was used as a blank control. • 8) 4 µL of pre-mixed working solutions of the two antibodies (cryptate Ab:d2 Ab = 1:1) was added, and the plate was sealed. • 9) The plate was incubated at room temperature overnight. 10) The plate was read at 665nm and 620nm using Biotek cytation3.0 microplate reader, and the ratio of 665/620nm of each well was calculated.
as §2, §3

NIH/3T3 BTK C481S cells = test: Phosphor-BTK(Y223) assay, adherent cells; settings: Mus musculus, NIH3T3, phosphorylated BTK Y223, NIH/3T3 BTK C481S cells; read-out: NIH/3T3 BTK-C481S pBTK
Description: as §1, §4, §2, §3

| Structure (SMILES) | IC50 (Ramos cells with BTK WT) | IC50 (NIH/3T3 BTK WT cells) | IC50 (NIH/3T3 BTK C481S cells) |
| --- | --- | --- | --- |
| COc1ccc(F)cc1C(=O)NCc1ccc(-c2nc(-c3ccccc3Cl)cc3[nH]nc(N)c23)cc1 [Example 88, N-(4-(3-amino-6-(2-chlorophenyl)-1H-pyrazolo[4,3-c]pyridin-4-yl)benzyl)-5-fluoro-2-methoxybenzamide] | 5 to 10 nM | 10 to 50 nM | > 50 nM |
| COc1ccc(F)cc1C(=O)NCc1ccc(-c2ncc(-c3cnn4ccncc34)c3[nH]nc(N)c23)cc1 [Example 109, N-(4-(3-amino-7-(pyrazolo[1,5-a]pyrazin-3-yl)-1H-pyrazolo[4,3-c]pyridin-4-yl)benzyl)-5-fluoro-2-methoxybenzamide] | > 50 nM | > 50 nM | > 50 nM |
| COc1ccc(F)cc1C(=O)NCc1ccc(-c2ncc(-c3cnc4ccccn34)c3[nH]nc(N)c23)cc1 [Example 55, N-(4-(3-amino-7-(imidazo[1,2-a]pyridin-3-yl)-1H-pyrazolo[4,3-c]pyridin-4-yl)benzyl)-5-fluoro-2-methoxybenzamide] | > 50 nM | > 50 nM | > 50 nM |
| COc1ccc(F)cc1C(=O)NCc1ccc(-c2ncc(-c3cncnc3)c3[nH]nc(N)c23)cc1 [Example 16, N-(4-(3-amino-7-(pyrimidin-5-yl)-1H-pyrazolo[4,3-c]pyridin-4-yl)benzyl)-5-fluoro-2-methoxybenzamide] | > 50 nM | > 50 nM | > 50 nM |
| COc1ccc(F)cc1C(=O)NCc1ccc(-c2nc(C3CCS(=O)(=O)CC3)cc3[nH]nc(N)c23)cc1 [Example 93, N-(4-(3-amino-6-(1,1-dioxidotetrahydro-2H-thiopyran-4-yl)-1H-pyrazolo[4,3-c]pyridin-4-yl)benzyl)-5-fluoro-2-methoxybenzamide] | > 50 nM | > 50 nM | > 50 nM |
| COc1ccc(F)cc1C(=O)NCc1ccc(-c2ncc(-c3cccnn3)c3[nH]nc(N)c23)cc1 [Example 40, N-(4-(3-amino-7-(pyridazin-3-yl)-1H-pyrazolo[4,3-c]pyridin-4-yl)benzyl)-5-fluoro-2-methoxybenzamide] | 10 to 50 nM | 10 to 50 nM | > 50 nM |
| Nc1n[nH]c2cc(C3CC[S+]([O-])CC3)nc(-c3ccc(CNC(=O)c4cc(F)ccc4O)cc3)c12 (stereo not drawn) [Example 92, N-(4-(3-amino-6-(1-oxidotetrahydro-2H-thiopyran-4-yl)-1H-pyrazolo[4,3-c]pyridin-4-yl)benzyl)-5-fluoro-2-hydroxybenzamide] | 10 to 50 nM | > 50 nM | > 50 nM |
| COc1ccc(F)cc1C(=O)NCc1ccc(-c2nc(C(C)C(F)(F)F)c(-c3ccccn3)c3[nH]nc(N)c23)cc1 (stereo not drawn) [Example 5, N-(4-(3-amino-7-(pyridin-2-yl)-6-(1,1,1-trifluoropropan-2-yl)-1H-pyrazolo[4,3-c]pyridin-4-yl)benzyl)-5-fluoro-2-methoxybenzamide] | > 50 nM | > 50 nM | > 50 nM |
| COc1ccc(F)cc1C(=O)NCc1ccc(-c2ncc(-c3cnc4cccnn34)c3[nH]nc(N)c23)cc1 [Example 110, N-(4-(3-amino-7-(imidazo[1,2-b]pyridazin-3-yl)-1H-pyrazolo[4,3-c]pyridin-4-yl)benzyl)-5-fluoro-2-methoxybenzamide] | > 50 nM | > 50 nM | > 50 nM |
| COc1ccc(F)cc1C(=O)NCc1ccc(-c2nc(C(C)C(F)(F)F)c(Br)c3[nH]nc(N)c23)cc1 (stereo not drawn) [Example 4, N-(4-(3-amino-7-bromo-6-(1,1,1-trifluoropropan-2-yl)-1H-pyrazolo[4,3-c]pyridin-4-yl)benzyl)-5-fluoro-2-methoxybenzamide] | > 50 nM | > 50 nM | > 50 nM |
| COc1ccc(F)cc1C(=O)NCc1ccc(-c2ncc(-c3cnn4ccccc34)c3[nH]nc(N)c23)cc1 [Example 33, N-(4-(3-amino-7-(pyrazolo[1,5-a]pyridin-3-yl)-1H-pyrazolo[4,3-c]pyridin-4-yl)benzyl)-5-fluoro-2-methoxybenzamide] | > 50 nM | > 50 nM | > 50 nM |
| COc1ccc(F)cc1C(=O)NCc1ccc(-c2ncc(-c3cnc4ncccn34)c3[nH]nc(N)c23)cc1 [Example 63, N-(4-(3-amino-7-(imidazo[1,2-a]pyrimidin-3-yl)-1H-pyrazolo[4,3-c]pyridin-4-yl)benzyl)-5-fluoro-2-methoxybenzamide] | > 50 nM | > 50 nM | > 50 nM |
| COc1ccc(F)cc1C(=O)NCc1ccc(-c2ncc(-c3ccnn3C)c3[nH]nc(N)c23)cc1 [Example 32, N-(4-(3-amino-7-(1-methyl-1H-pyrazol-5-yl)-1H-pyrazolo[4,3-c]pyridin-4-yl)benzyl)-5-fluoro-2-methoxybenzamide] | > 50 nM | > 50 nM | > 50 nM |
| COc1ccc(F)cc1C(=O)NCc1ccc(-c2nc(-c3c(Cl)cccc3Cl)cc3[nH]nc(N)c23)cc1 [Example 89, N-(4-(3-amino-6-(2,6-dichlorophenyl)-1H-pyrazolo[4,3-c]pyridin-4-yl)benzyl)-5-fluoro-2-methoxybenzamide] | 10 to 50 nM | 10 to 50 nM | > 50 nM |
| COc1ccc(F)cc1C(=O)NCc1ccc(-c2nc(C(C)C(F)(F)F)c(-c3cnccn3)c3[nH]nc(N)c23)cc1 (stereo not drawn) [Example 8, N-(4-(3-amino-7-(pyrazin-2-yl)-6-(1,1,1-trifluoropropan-2-yl)-1H-pyrazolo[4,3-c]pyridin-4-yl)benzyl)-5-fluoro-2-methoxybenzamide] | > 50 nM | > 50 nM | > 50 nM |
| COc1ccc(F)cc1C(=O)NCc1ccc(-c2nc(C(C)C(F)(F)F)c(-c3cncnc3)c3[nH]nc(N)c23)cc1 (stereo not drawn) [Example 10, N-(4-(3-amino-7-(pyrimidin-5-yl)-6-(1,1,1-trifluoropropan-2-yl)-1H-pyrazolo[4,3-c]pyridin-4-yl)benzyl)-5-fluoro-2-methoxybenzamide] | > 50 nM | > 50 nM | > 50 nM |
